Converted amounts (≈) assume the structure as drawn.
Assays:
Veillonella parvula = experiment: MIC agar dilution, anaerobic bacteria; assay type: cell-based; details: Culture # 2479
Clostridium difficile = experiment: In vivo hamster model of pseudomembranous Clostridium difficile induced colitis; details: for % Weight change, Day 22 / % Mortality: days 8-14; for % Mortality: expiring by day 20
Protocol: (Suppression of normal gastrointestinal bacteria by the ciprofloxacin permitted the drug-resistant C. difficile to predominate.) Five additional hamsters were segregated as a noninfected control group.
The infected animals were divided into three groups comprising (a) 10 untreated animals; (b) 15 vancomycin-treated animals (5 each at 20, 10 and 1 mg/kg/day orally on days 8-14); and (c) 10 animals treated with the compound of Example 2 (5 each at 10 and 1 mg/kg/day on days 8-14). The subject animals were monitored for (a) body weight (infected hamsters lose significant body mass), and (b) mortality (percent expiring by day 20).

Mycobacterium smegmatis = experiment: MIC agar dilution, aerobic and facultative bacteria; details: Culture # 5171

SMILES: CCc1c(Cl)c(OC)c(Cl)c(OC)c1C(=O)OC1C(C)OC(OCC2=CC=CCC(O)C(C)=CC(CC)C(OC3OC(C)(C)C(OC(=O)C(C)C)C(O)C3O)C(C)=CC(C)=CCC(C(C)O)OC2=O)C(OC)C1O (stereo not drawn) [Example 2, 3"', 5"'-Di-O-methyltiacumicin B]
- MIC (Veillonella parvula): > 2 µg/mL
- body mass (Clostridium difficile; 1 mg/kg): maintained body mass closest to that of non-infected controls
- % Weight change, Day 22 (Clostridium difficile; 1 mg/kg/day): 154%
- % Mortality (Clostridium difficile; 1 mg/kg/day): 20%
- % Weight change, Day 22 (Clostridium difficile; 10 mg/kg/day): 140%
- % Mortality (Clostridium difficile; 10 mg/kg/day): 60%
- treatment of antibiotic-associated colitis (Clostridium difficile; Table 3): effectively treat an antibiotic-associated colitis
- survival rate (Clostridium difficile; versus untreated infected controls or vancomycin): higher survival rate than either untreated infected controls or in hamsters treated with vancomycin
- MIC (Mycobacterium smegmatis): 1.56 µg/mL (≈ 1.44 µM)

From patent US5583115A, “Dialkyltiacumicin compounds” (Abbott Laboratories, priority 1995, dated 1996)
